pEC50: −log10 of the molar value.
Experiments:
HIV Nef [1] = assay: Nef activity in HIV-infected CD4+ T cells treated with plasma from CMA-injected mice; assay type: cell-based; details: plasma 30 minutes after injection, diluted 1:20
Method: FIG. 8F is a summary graph of flow cytometric data from experiments as in FIG. 1. Blood plasma was isolated from mice 30 minutes after injection with CMA, and CMA concentration was determined by mass spectrometry. Primary CD4+ T cells infected with HIV as in FIG. 1 were treated with 5% plasma from control mice spiked with known concentrations of CMA (standard curve) or with plasma from the CMA-injected mice diluted 1:20. Nef activity in cells receiving plasma from treated mice was compared to the standard curve based on the concentration of CMA as determined by mass spectrometry.
(§1) Mouse in vivo Assays. To further examine the tolerability of CMA, preliminary studies were performed in two groups of mice injected with different doses of CMA every other day for 18 days (FIG. 8A). […] In a separate experiment, plasma harvested from treated mice inhibited Nef in our in vitro assay (FIG. 8F). Taken together, these promising preliminary studies provide evidence that CMA is both efficacious and tolerable in vivo.

[2] = CMA concentration in mouse plasma and lymph nodes by mass spectrometry; assay type: in vivo, mice; details: 2 hours after the final dose
Method: FIG. 8A is a schematic representation of experiments for FIG. 8B-D. Five mice per group received injections of CMA every 2 days for 10 doses. Blood plasma and lymph nodes were harvested from mice sacrificed 2 hours after the final injection.
FIG. 8D is a summary graph of mass spectrometry data quantifying the concentration of CMA in blood plasma from mice in each Group A and Group B.
FIG. 8E is a summary graph of mass spectrometry data quantifying the concentration of CMA in lymph nodes from mice in each Group A and Group B. Points represent the 5 individual mice within each group. LOD=limit of detection. Open circles represent samples with CMA below the limit of detection.
as §1

[3] = test system: ARF-1:AP-1:Nef:MHC-I complex; assay: Differential scanning fluorimetry (DSF) thermal stability assay; assay type: binding; details: 1-hour incubation, compared to solvent control
Source text: The His6- and GST-tagged AP-1 core, mouse AP1M1 (157-423) (referred as μ1-CTD), human Arf1 (17-181)-Q71L, human MHC-I (338-365)-NL4-3 Nef, HIV-1 NL4-3 Nef constructs and protein purification were previously described. For GST pull down assay, codon-optimized human MHC-I (338-365) was subcloned into pGST parallel2 vector using BamHI/Xhol sites, fused an N-terminal GST tag and a TEV cleavage site. PCR encoding HIV-1 Nef or SlVsmm Nef fused with GFP was subcloned into LIC 2BT vector (Macrolab), expressed as a TEV-cleavable N-terminal His6 tag and C-terminal uncleavable GFP tag.
Recombinant AP-1 core was mixed with Arf1-GTP and MHC-I-Nef at the molar ratio of 1:4:6, then incubated at 4° C. overnight. […]
DSF assays were performed using a Stratagene Mx3000P RT-PCR (Stratagene, La Jolla, CA) to monitor protein unfolding by the florescence increasing of SYPRO Orang (Invitrogen, Carlsbad, Calif.). […] The Fluorescent intensity was measured using the SYBR green filter over the temperature range of 25 to 90° C. in 1 degree/min increments. After subtracting fluorescence from DMSO control reaction without protein, the average fluorescent intensities were plotted as a function of temperature. […] The fluorescence intensity (before post-peak region) was fitted to Boltzmann equation to obtain melting temperature (Tm).

[4] = test system: lysosomal pH in human monocyte-derive macrophages (MDMs); assay: Lysosensor Yellow/Blue dextran analysis of lysosomal pH in MDMs; assay type: cell-based; details: 1 hour, read-out: EC50 for lysosome neutralization
Method: To measure the lysosomal pH in human monocyte-derive macrophages (MDMs), MDMs adhered to 24-well plates were exposed to 500 μg/mL Lysosensor Yellow/Blue dextran, 10,000 MW (ThermoFisher, L22460) in R10 for 24 hours. MDMs were then exposed to plecomacrolides for 1 hour and harvested with 0.05% Trypsin-EDTA (Gibco 25300054). Cells were washed twice in FACS buffer, and analyzed on a MoFlo Astrios flow cytometer, with blue signal excited from a 354 nm laser and yellow signal excited from a 405 nm laser. A standard curve was generated by resuspending MDMs in equilibration buffers of known pH as previously described. The ratio of blue:yellow fluorescence intensity was calculated for each cell, the median blue:yellow ratio for the cell population for each condition was obtained, and the lysosomal pH in MDMs was calculated for each condition using the standard curve.
Lysosensor Yellow/Blue Dextran Analysis of Lysosomal pH. To measure the lysosomal pH in human MDMs, MDMs adhered to 24-well plates were exposed to 500 μg/mL Lysosensor Yellow/Blue dextran, 10,000 molecular weight (MVV) in R10 for 24 h. MDMs were then exposed to plecomacrolides for 1 h and harvested with 0.05% Trypsin-(ethylenedinitrilo)tetraacetic acid (EDTA). Cells were washed twice in FACS buffer, and analyzed on a flow cytometer, with blue signal excited from a 354-nm laser and yellow signal excited from a 405-nm laser. A standard curve was generated by resuspending MDMs in equilibration buffers of known pH. The ratio of blue:yellow fluorescence intensity was calculated for each cell, the median blue:yellow ratio for the cell population for each condition was obtained, and the lysosomal pH in MDMs was calculated for each condition using the standard curve.

HIV Nef [5] = test system: HIV Nef
[6] = test system: Nef alleles from HIV clades A, B, C, D, F, and F/B and SIV; assay: Nef alleles of diverse HIV clades and SIV (MSCV-IRES-GFP) in CEM cells expressing MHC-I alleles; assay type: cell-based
Method: (ii) MSCV: Murine stem cell virus internal ribosome entry site GFP (pMIG) constructs containing various nef alleles were generated as previously described. Retroviral supernatants were prepared using BOSC cells transfected with the pMIG constructs, the retrovirus packaging vector pCL-Eco (65) and pHCMV-G using PEI as described above for HIV. Viral supernatants were collected 48 h post-transfection, clarified by centrifugation, stored at −80° C., and transductions were performed as described for HIV constructs.

Q: Which “Nef inhibition by plasma harvested from treated mice” value (HIV Nef [1]) does the source give for `C/C=C/[C@H]1O[C@@](O)([C@@H](C)[C@H](O)[C@H](C)[C@H]2OC(=O)/C(OC)=C/C(C)=C/[C@@H](C)[C@@H](O)[C@@H](CC)[C@@H](O)[C@H](C)C/C(C)=C/C=C/[C@@H]2OC)C[C@@H](O[C@H]2C[C@@H](O)[C@H](OC(N)=O)[C@@H](C)O2)[C@@H]1C` [CMA, concanamycin A] here?
A: inhibited Nef

Q: And the “change in Tm of complex components” value [3]?
A: No significant changes in Tm

Q: What about the pEC50 [4] of the same molecule?
A: 7.90

Q: What about the “suppression of Nef activity” value (HIV Nef [5]; 0.5 nM, 24-h incubation, primary CD4+ T cells) of the same molecule?
A: […]

Q: And the “downmodulation of HLA-B*51:01 and HLA-B*07:02” value (HIV Nef [5]; cells infected with ΔGPE)?
A: […]

Q: What about the “surface expression of HA-tagged HLA-A*02, HLA-B*08, HLA-B*27, HLA-B*57” value ([6]; CEM cells, each Nef allele) of the same molecule?
A: restored MHC-I surface expression in every context

Q: And the “HLA-A2 expression in cells expressing diverse nef alleles” value ([6]; CEM-A2 cells)?
A: restored expression of HLA-A2 in cells expressing each nef allele
